# Laboratory results from PubChem BioAssay (NCI).
#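 Results reflect a 48-hour exposure of cells in 96-well plates to compound at five concentrations. At the GI50, growth is halved. TGI: concentration producing complete growth inhibition.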
# Columns and labels:
# Assay in all cases: DTP human tumour cell line panel, 48 h
# 786-0 renal = system: 786-0 renal
# A498 renal = system: A498 renal
# A549 NSCLC = system: A549 NSCLC
# ACHN renal = system: ACHN renal
# BT-549 breast = system: BT-549 breast
# CAKI-1 renal = system: CAKI-1 renal
# CCRF-CEM leukemia = system: CCRF-CEM leukemia
# COLO 205 colon = system: COLO 205 colon
# DU-145 prostate = system: DU-145 prostate
# EKVX NSCLC = system: EKVX NSCLC
# HCC-2998 colon = system: HCC-2998 colon
# HCT-116 colon = system: HCT-116 colon
# HCT-15 colon = system: HCT-15 colon
# HL-60(TB) leukemia = system: HL-60(TB) leukemia
# HOP-62 NSCLC = system: HOP-62 NSCLC
# HOP-92 NSCLC = system: HOP-92 NSCLC
# HS 578T breast = system: HS 578T breast
# HT29 colon = system: HT29 colon
# IGROV1 ovarian = system: IGROV1 ovarian
# K-562 leukemia = system: K-562 leukemia
# KM12 colon = system: KM12 colon
# LOX IMVI melanoma = system: LOX IMVI melanoma
# M14 melanoma = system: M14 melanoma
# MALME-3M melanoma = system: MALME-3M melanoma
# MCF7 breast = system: MCF7 breast
# MDA-MB-231 breast = system: MDA-MB-231 breast
# MDA-MB-435 = system: MDA-MB-435
# MOLT-4 leukemia = system: MOLT-4 leukemia
# NCI-H226 lung = system: NCI-H226 lung
# NCI-H23 lung = system: NCI-H23 lung
# NCI-H460 lung = system: NCI-H460 lung
# NCI-H522 lung = system: NCI-H522 lung
# NCI/ADR-RES ovarian = system: NCI/ADR-RES ovarian
# OVCAR-3 ovarian = system: OVCAR-3 ovarian
# OVCAR-4 ovarian = system: OVCAR-4 ovarian
# OVCAR-5 ovarian = system: OVCAR-5 ovarian
# OVCAR-8 ovarian = system: OVCAR-8 ovarian
# PC-3 prostate = system: PC-3 prostate
# RPMI-8226 leukemia = system: RPMI-8226 leukemia
# RXF 393 renal = system: RXF 393 renal
# SF-268 CNS = system: SF-268 CNS
# SF-295 CNS = system: SF-295 CNS
# SF-539 CNS = system: SF-539 CNS
# SK-MEL-2 melanoma = system: SK-MEL-2 melanoma
# SK-MEL-28 melanoma = system: SK-MEL-28 melanoma
# SK-MEL-5 melanoma = system: SK-MEL-5 melanoma
# SK-OV-3 ovarian = system: SK-OV-3 ovarian
# SN12C renal = system: SN12C renal
# SNB-19 CNS = system: SNB-19 CNS
# SNB-75 CNS = system: SNB-75 CNS
# SR leukemia = system: SR leukemia
# SW-620 colon = system: SW-620 colon
# T-47D breast = system: T-47D breast
# TK-10 renal = system: TK-10 renal
# U251 CNS = system: U251 CNS
# UACC-257 melanoma = system: UACC-257 melanoma
# UACC-62 melanoma = system: UACC-62 melanoma
# UO-31 renal = system: UO-31 renal
smiles,measurement,setting,value
C=C1CCC2C3(C)COC(c4c(OC)cccc4OC)OC3CCC2(C)C1C/C=C1/C(=O)OCC1O (stereo unspecified),GI50,786-0 renal,3.34 µM
same,TGI,786-0 renal,8.88 µM
same,GI50,A498 renal,15 µM
same,TGI,A498 renal,29.6 µM
same,GI50,A549 NSCLC,3.14 µM
same,TGI,A549 NSCLC,11.6 µM
same,GI50,ACHN renal,2.38 µM
same,TGI,ACHN renal,5.85 µM
same,GI50,BT-549 breast,2.25 µM
same,TGI,BT-549 breast,5.64 µM
same,GI50,CAKI-1 renal,1.57 µM
same,TGI,CAKI-1 renal,3.48 µM
same,GI50,CCRF-CEM leukemia,1.86 µM
same,TGI,CCRF-CEM leukemia,5.75 µM
same,GI50,COLO 205 colon,2.23 µM
same,TGI,COLO 205 colon,4.95 µM
same,GI50,DU-145 prostate,2.96 µM
same,TGI,DU-145 prostate,7.87 µM
same,GI50,EKVX NSCLC,8.47 µM
same,TGI,EKVX NSCLC,27.3 µM
same,GI50,HCC-2998 colon,4.18 µM
same,TGI,HCC-2998 colon,11.2 µM
same,GI50,HCT-116 colon,1.64 µM
same,TGI,HCT-116 colon,3.11 µM
same,GI50,HCT-15 colon,2.28 µM
same,TGI,HCT-15 colon,7.87 µM
same,GI50,HL-60(TB) leukemia,1.54 µM
same,TGI,HL-60(TB) leukemia,4.9 µM
same,GI50,HOP-62 NSCLC,14.8 µM
same,TGI,HOP-62 NSCLC,28.7 µM
same,GI50,HOP-92 NSCLC,2.92 µM
same,TGI,HOP-92 NSCLC,8.51 µM
same,GI50,HS 578T breast,2.71 µM
same,TGI,HS 578T breast,10.9 µM
same,GI50,HT29 colon,2.51 µM
same,TGI,HT29 colon,6.62 µM
same,GI50,IGROV1 ovarian,1.89 µM
same,TGI,IGROV1 ovarian,4 µM
same,GI50,K-562 leukemia,1.41 µM
same,TGI,K-562 leukemia,6.28 µM
same,GI50,KM12 colon,2.21 µM
same,TGI,KM12 colon,4.99 µM
same,GI50,LOX IMVI melanoma,1.63 µM
same,TGI,LOX IMVI melanoma,3.25 µM
same,GI50,M14 melanoma,2.96 µM
same,TGI,M14 melanoma,9.01 µM
same,GI50,MALME-3M melanoma,8.92 µM
same,TGI,MALME-3M melanoma,27.7 µM
same,GI50,MCF7 breast,2.53 µM
same,TGI,MCF7 breast,12.8 µM
same,GI50,MDA-MB-231 breast,7.57 µM
same,TGI,MDA-MB-231 breast,26.4 µM
same,GI50,MDA-MB-435,2.88 µM
same,TGI,MDA-MB-435,10.8 µM
same,GI50,MOLT-4 leukemia,3.22 µM
same,TGI,MOLT-4 leukemia,13.3 µM
same,GI50,NCI-H226 lung,2.42 µM
same,TGI,NCI-H226 lung,5.81 µM
same,GI50,NCI-H23 lung,3.98 µM
same,TGI,NCI-H23 lung,15 µM
same,GI50,NCI-H460 lung,4.71 µM
same,TGI,NCI-H460 lung,19.5 µM
same,GI50,NCI-H522 lung,2.02 µM
same,TGI,NCI-H522 lung,5.01 µM
same,GI50,NCI/ADR-RES ovarian,2.65 µM
same,TGI,NCI/ADR-RES ovarian,7.03 µM
same,GI50,OVCAR-3 ovarian,1.94 µM
same,TGI,OVCAR-3 ovarian,3.95 µM
same,GI50,OVCAR-4 ovarian,2.42 µM
same,TGI,OVCAR-4 ovarian,6.73 µM
same,GI50,OVCAR-5 ovarian,3.39 µM
same,TGI,OVCAR-5 ovarian,8.63 µM
same,GI50,OVCAR-8 ovarian,3.09 µM
same,TGI,OVCAR-8 ovarian,11.5 µM
same,GI50,PC-3 prostate,2.66 µM
same,TGI,PC-3 prostate,11.7 µM
same,GI50,RPMI-8226 leukemia,2.01 µM
same,TGI,RPMI-8226 leukemia,5.67 µM
same,GI50,RXF 393 renal,1.92 µM
same,TGI,RXF 393 renal,3.55 µM
same,GI50,SF-268 CNS,3.7 µM
same,TGI,SF-268 CNS,12.4 µM
same,GI50,SF-295 CNS,5.28 µM
same,TGI,SF-295 CNS,18.1 µM
same,GI50,SF-539 CNS,2.55 µM
same,TGI,SF-539 CNS,6.35 µM
same,GI50,SK-MEL-2 melanoma,7.18 µM
same,TGI,SK-MEL-2 melanoma,21.9 µM
same,GI50,SK-MEL-28 melanoma,1.93 µM
same,TGI,SK-MEL-28 melanoma,4.05 µM
same,GI50,SK-MEL-5 melanoma,2.83 µM
same,TGI,SK-MEL-5 melanoma,8.57 µM
same,GI50,SK-OV-3 ovarian,5.71 µM
same,TGI,SK-OV-3 ovarian,20.3 µM
same,GI50,SN12C renal,2.33 µM
same,TGI,SN12C renal,8.27 µM
same,GI50,SNB-19 CNS,14.6 µM
same,TGI,SNB-19 CNS,29.9 µM
same,GI50,SNB-75 CNS,2.55 µM
same,TGI,SNB-75 CNS,14.5 µM
same,GI50,SR leukemia,1.62 µM
same,TGI,SR leukemia,4.99 µM
same,GI50,SW-620 colon,1.71 µM
same,TGI,SW-620 colon,3.23 µM
same,GI50,T-47D breast,5.43 µM
same,TGI,T-47D breast,26.9 µM
same,GI50,TK-10 renal,4.03 µM
same,TGI,TK-10 renal,12.5 µM
same,GI50,U251 CNS,1.91 µM
same,TGI,U251 CNS,4.36 µM
same,GI50,UACC-257 melanoma,13.5 µM
same,TGI,UACC-257 melanoma,31 µM
same,GI50,UACC-62 melanoma,3.32 µM
same,TGI,UACC-62 melanoma,15 µM
same,GI50,UO-31 renal,2.01 µM
same,TGI,UO-31 renal,4.33 µM
